From US20220323596A1, “ANTIBODY CONJUGATES OF TOLL-LIKE RECEPTOR AGONISTS” (SILVERBACK THERAPEUTICS, INC., priority 2018, published 2022) come the findings set out here.

Molecules are shown by their SMILES.

A word on the EC50: it is the midpoint of the concentration-response curve. Low values mean higher potency in that assay, high ones lower potency in that assay.

The target in one experiment is T1, TLR7 (Mus musculus, UniProt P58681).
T1 construct: endogenous in cells; host or cells: Balb/c mouse bone marrow-derived macrophages, differentiated with M-CSF
T1 sequence (P58681 27-1050): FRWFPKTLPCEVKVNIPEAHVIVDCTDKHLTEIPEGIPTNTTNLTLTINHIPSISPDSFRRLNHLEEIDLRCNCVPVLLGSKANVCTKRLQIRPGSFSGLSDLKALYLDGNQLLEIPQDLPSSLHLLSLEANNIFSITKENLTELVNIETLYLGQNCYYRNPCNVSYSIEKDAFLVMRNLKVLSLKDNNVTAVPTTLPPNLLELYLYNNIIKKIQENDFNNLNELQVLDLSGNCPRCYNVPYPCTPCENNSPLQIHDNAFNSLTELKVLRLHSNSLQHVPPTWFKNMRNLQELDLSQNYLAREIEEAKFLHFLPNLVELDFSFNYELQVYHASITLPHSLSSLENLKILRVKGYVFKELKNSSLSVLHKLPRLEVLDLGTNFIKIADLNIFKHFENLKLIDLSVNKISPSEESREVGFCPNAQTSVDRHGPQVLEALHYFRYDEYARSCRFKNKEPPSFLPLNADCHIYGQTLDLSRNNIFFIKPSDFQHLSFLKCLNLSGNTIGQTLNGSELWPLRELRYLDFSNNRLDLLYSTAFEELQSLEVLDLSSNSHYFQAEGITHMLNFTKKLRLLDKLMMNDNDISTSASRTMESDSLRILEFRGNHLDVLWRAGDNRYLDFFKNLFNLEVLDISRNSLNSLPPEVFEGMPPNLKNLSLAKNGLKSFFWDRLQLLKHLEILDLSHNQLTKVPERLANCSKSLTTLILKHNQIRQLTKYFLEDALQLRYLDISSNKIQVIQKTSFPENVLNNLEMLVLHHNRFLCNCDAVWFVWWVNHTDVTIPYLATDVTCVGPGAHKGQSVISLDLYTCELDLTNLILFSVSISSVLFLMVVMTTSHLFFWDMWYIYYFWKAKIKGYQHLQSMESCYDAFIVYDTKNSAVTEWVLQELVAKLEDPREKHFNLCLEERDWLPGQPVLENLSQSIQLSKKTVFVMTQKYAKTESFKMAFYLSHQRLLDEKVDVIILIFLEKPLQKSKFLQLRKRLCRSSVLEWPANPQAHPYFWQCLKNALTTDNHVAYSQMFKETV
The experiment can be described thus: In vitro TLR7 small molecule screening: murine TNFα production by bone marrow-derived murine macrophages. It counts as cell-based. As to conditions: murine TNFα by ELISA after overnight culture; 1000 to 0.06 nM; non-linear regression. The protocol:
Murine macrophages were derived from bone marrow cells from a Balb/c mouse. Briefly, murine bone marrow cells were isolated and resuspended in cDMEM media (high glucose DMEM (HyClone) supplemented with 10% fetal bovine serum (HyClone), 1 mM Sodium Pyruvate (HyClone), 2 mM L-glutamine (Gibco), 10 mM HEPES (HyClone), 1×NEAA (Gibco), 50 U/mL penicillin, 50 U/mL streptomycin (HyClone)) and seeded at 5e5 cells/mL in the presence of 20 ng/mL murine M-CSF (Peprotech) and incubated at 37° C., 5% CO2 for 7 days to differentiate into murine macrophages.
After differentiation, bone marrow-derived murine macrophages were plated in 96-well flat bottom microtiter plates (80,000/well) along with titrating concentrations of TLR7 small molecules ranging from 1000 to 0.06 nM in cRPMI media (RPMI-1640 (HyClone) supplemented with 10% fetal bovine serum (HyClone), 1 mM Sodium Pyruvate (HyClone), 2 mM L-glutamine (Gibco), 10 mM HEPES (HyClone), 1×NEAA (Gibco), 50 U/mL penicillin, 50 U/mL streptomycin (HyClone)). After overnight culture, supernatants were harvested and murine TNFα levels were determined by ELISA (BioLegend). Table 4. […] Data was analyzed using GraphPad Prism 7.01 software (GraphPad Software) and EC50 values calculated using non-linear regression. The TLR7 small molecules were active, stimulating production of murine TNFα in a dose-dependent manner from the murine macrophages. Compound A is represented by the formula: […]
On the technique in general: An ELISA detects its analyte on a solid surface through an enzyme-linked reagent.
Compound `CCOCc1nc2c(NC(=O)[C@H](CCCNC(N)=O)NC(=O)[C@@H](N)C(C)C)nc3ccccc3c2n1CC(C)(C)OCCNC(=O)OC(C)(C)C` [Compound 1.5, tert-butyl (2-((1-(4-((S)-2-((S)-2-amino-3-methylbutanamido)-5-ureidopentanamido)-2-(ethoxymethyl)-1H-imidazo[4,5-c]quinolin-1-yl)-2-methylpropan-2-yl)oxy)ethyl)carbamate] gave an EC50 of 0.004 µM. Same read-out and setting: the figure for `CCOCc1nc2c(N)nc3ccccc3c2n1CC(C)(C)OCCNC(=O)C(C)(C)NC(=O)OCc1ccccc1` [Compound 1.1, benzyl (1-((2-((1-(4-amino-2-(ethoxymethyl)-1H-imidazo[4,5-c]quinolin-1-yl)-2-methylpropan-2-yl)oxy)ethyl)amino)-2-methyl-1-oxopropan-2-yl)carbamate] is 0.02 µM. Same read-out and setting: the value for `CCOCc1nc2c(N)nc3ccccc3c2n1CC(C)(C)OCCNC(=O)OC(C)(C)C` [Compound 1.4, tert-butyl (2-((1-(4-amino-2-(ethoxymethyl)-1H-imidazo[4,5-c]quinolin-1-yl)-2-methylpropan-2-yl)oxy)ethyl)carbamate] was 0.0012 µM. Still for that read-out and setting: the value for `CCOCc1nc2c(NC(=O)[C@H](CCCNC(N)=O)NC(=O)[C@@H](NC(=O)OCC3c4ccccc4-c4ccccc43)C(C)C)nc3ccccc3c2n1CC(C)(C)OCCNC(=O)OC(C)(C)C` [Compound 1.8, (9H-fluoren-9-yl)methyl ((S)-1-(((S)-1-((1-(2-(2-((tert-butoxycarbonyl)amino)ethoxy)-2-methylpropyl)-2-(ethoxymethyl)-1H-imidazo[4,5-c]quinolin-4-yl)amino)-1-oxo-5-ureidopentan-2-yl)amino)-3-methyl-1-oxobutan-2-yl)carbamate] was 0.059 µM; that for `CCOCc1nc2c(NC(=O)[C@H](C)NC(=O)OC(C)(C)C)nc3ccccc3c2n1CC(C)(C)OCCNC(=O)C(C)(C)NC(=O)OCc1ccccc1` [Compound 1.3, benzyl (S)-(1-((2-((1-(4-(2-((tert-butoxycarbonyl)amino)propanamido)-2-(ethoxymethyl)-1H-imidazo[4,5-c]quinolin-1-yl)-2-methylpropan-2-yl)oxy)ethyl)amino)-2-methyl-1-oxopropan-2-yl)carbamate] was 1.68 µM; that for `CCOCc1nc2c(N)nc3ccccc3c2n1CC(C)(C)OCCN` [Compound A, reference compound] was 0.073 µM. In turn, `CCOCc1nc2c(NC(=O)[C@H](C)N)nc3ccccc3c2n1CC(C)(C)OCCNC(=O)C(C)(C)NC(=O)OCc1ccccc1` [Compound 1.6, benzyl (S)-(1-((2-((1-(4-(2-aminopropanamido)-2-(ethoxymethyl)-1H-imidazo[4,5-c]quinolin-1-yl)-2-methylpropan-2-yl)oxy)ethyl)amino)-2-methyl-1-oxopropan-2-yl)carbamate] displayed an EC50 of 0.657 µM. In turn, `CCOCc1nc2c(NC(=O)[C@H](C)NC(=O)C3CCCN3C(=O)OC(C)(C)C)nc3ccccc3c2n1CC(C)(C)OCCNC(=O)C(C)(C)NC(=O)OCc1ccccc1` (stereo partly drawn) [Compound 1.7, tert-butyl 2-(((S)-1-((2-(ethoxymethyl)-1-(5,5,11,11-tetramethyl-3,6-dioxo-1-phenyl-2,10-dioxa-4,7-diazadodecan-12-yl)-1H-imidazo[4,5-c]quinolin-4-yl)amino)-1-oxopropan-2-yl)carbamoyl)pyrrolidine-1-carboxylate] registered a concentration for a half-maximal effect (EC50) of 0.503 µM.

Another experiment concerns BMDM with MDA-MB-468 (HER2neg). The experiment can be described thus: mTNFα from mouse bone marrow derived macrophages co-cultured with MDA-MB-468 (HER2neg) cells. It counts as cell-based. To be noted: 24 hours co-culture with HER2neg MDA-MB-468. As for the experimental part:
(§1) The ability of an anti-HER2-TLR7 conjugate to specifically activate mouse macrophages when bound to tumor cells by HER2 was assessed in vitro as follows. Bone marrow cells were harvested from BALB/cJ mouse femurs and tibias using a 27-gauge needle attached to a 3 mL syringe filled with growth media (DMEM supplemented with 10% Fetal Bovine Serum, 1 mM Sodium Pyruvate, 1× GlutaMAX-1, 1× Non-Essential Amino Acids, 10 mM HEPES and 0.5% Penicillin/Streptomycin). Bone marrow cells were centrifuged, and RBC lysed before being counted and resuspended at a concentration 5×10^5/mL in growth media. Ten mL of cell suspension was placed in 10 cm dishes and 20 ng/mL murine macrophage-colony-stimulating factor (mM-CSF) was added. Cells were incubated for two days, media replaced with fresh growth media containing 20 ng/mL mM-CSF, and then cultured for a further four days. BMDM and tumor cell lines SK-BR-3 (HER2pos) or MDA-MB-468 (HER2neg) were removed from plates with Accutase cell detachment solution and counted. […] Murine TNFα (mTNFα) levels in the supernatant were determined by mTNFα ELISA Kit (BioLegend) and read on an Envision Plate Reader (Perkin Elmer, Waltham, Mass.) according to manufactures instructions. mTNFα levels were then graphed using GraphPad Prism 7.01 software (GraphPad Software, San Diego, Calif.) and EC50 values generated using non-linear regression curve fit.
For the compound `CCOCc1nc2c(N)nc3ccccc3c2n1CC(C)(C)OCCNC(=O)C(C)(C)N` [Compound 1.2, 2-amino-N-(2-((1-(4-amino-2-(ethoxymethyl)-1H-imidazo[4,5-c]quinolin-1-yl)-2-methylpropan-2-yl)oxy)ethyl)-2-methylpropanamide], the “activation of mouse bone marrow cells (mTNFα)” value is listed as “potently activating”.

Another experiment relates to BMDM with SK-BR-3 (HER2pos). The experiment can be described thus: mTNFα from mouse bone marrow derived macrophages co-cultured with SK-BR-3 (HER2pos) cells. As to conditions: 24 hours co-culture with HER2pos SK-BR-3. In kind it is cell-based. As for the experimental part: as §1
Take `CCOCc1nc2c(N)nc3ccccc3c2n1CC(C)(C)OCCNC(=O)C(C)(C)N` [Compound 1.2, 2-amino-N-(2-((1-(4-amino-2-(ethoxymethyl)-1H-imidazo[4,5-c]quinolin-1-yl)-2-methylpropan-2-yl)oxy)ethyl)-2-methylpropanamide]: the “activation of mouse bone marrow cells (mTNFα)” value is “potently activating”.
